The test system of series [1] is RAW264.7. As to the kind of experiment: Antiinflammatory activity against mouse RAW264.7 cells assessed as reduction in TNFalpha level. It counts as functional, cell-based.
The test system of series [2] is RAW264.7. The experiment in a line: Antiinflammatory activity against mouse RAW264.7 cells assessed as reduction in IL6 level. It counts as functional, cell-based.
The next series relates to K562. The experiment in a line: Antiproliferative activity against human K562 cells assessed as reduction in cell viability incubated for 2 days by MTT assay. It counts as functional, cell-based. The conditions noted are these: K562, 48 h. Background: Tetrazolium assays rely on reduction of a dye to a coloured formazan, in cell work by metabolically active cells.
Series [3] has as its system RAW264.7. The experiment in a line: Antiinflammatory activity against mouse RAW264.7 cells assessed as reduction in IL6 level at 2.7 ug/ml. It counts as functional, cell-based.
The nature of series [4]: Cytotoxicity against mouse RAW264.7 cells assessed as cell viability at 2.7 ug/ml incubated for 2 days by MTT assay relative to control. It counts as cell-based. The conditions noted are these: read-out: Activity.
For the next series, the system named is EOL1. As to the kind of experiment: Antiproliferative activity against human EOL1 cells incubated for 2 days by MTT assay. It counts as functional, cell-based. The conditions noted are these: EOL1, 48 h.
A short description of series [5]: Antioxidant activity assessed as DPPH radical scavenging activity. It counts as functional. The conditions noted are these: dose or concentration not given here. On the technique in general: DPPH is a stable violet radical that fades when it is reduced.
Series [6] in a line: Cytotoxicity against mouse RAW264.7 cells assessed as reduction in cell viability incubated for 2 days by MTT assay. It counts as cell-based.
For the next series, the system named is HL-60. As to the kind of experiment: Antiproliferative activity against human HL60 cells incubated for 2 days by MTT assay. It counts as functional, cell-based. The conditions noted are these: HL-60, 48 h.
Series [7] is described as follows: Antioxidant activity assessed as trolox equivalent antioxidant capacity. It counts as functional.
Series [8] concerns RAW264.7. As to the kind of experiment: Antiinflammatory activity against mouse RAW264.7 cells assessed as reduction in TNFalpha level at 2.7 ug/ml. It counts as functional, cell-based.
For a further series, the system named is PBMC. The experiment in a line: Cytotoxicity against human PBMC assessed as reduction in cell viability incubated for 2 days by MTT assay. It counts as cell-based. The conditions noted are these: 48 h.
A further series concerns KG-1a. The experiment in a line: Antiproliferative activity against human KG1a cells assessed as reduction in cell viability incubated for 2 days by MTT assay. It counts as functional, cell-based. The following applies: 48 h.
Series [9] in a line: Antioxidant activity assessed as ferric reducing ability. It counts as functional.

In brackets after ≈: the same amount, converted by molar mass. Activity calls are given as the source filed them. No cut-off for these calls is given here.

Usually inhibition stands for the change of the read-out against control, counted positive when it falls. Consider `C[C@@H]1C[C@H]2[C@@H]3CCC4=CC(=O)C=C[C@]4(C)[C@@]3(F)[C@@H](O)C[C@]2(C)[C@@]1(O)C(=O)CO`, for which the inhibition entry in the series with RAW264.7 [1] and in the series on RAW264.7 [2] was “Dose-dependent effect” each time.

A word on the IC50: it is the midpoint of a concentration-inhibition curve. One may read the IC20 as the point of the concentration-response curve where the effect stands at 20%. Consider `C=C(CC[C@@H](C)[C@H]1CC[C@@]2(C)[C@@H]3CC[C@H]4C(C)(C)[C@@H](O)CC[C@]4(C)C3=CC[C@]12C)C(C)C`, for which the IC50 in the series with K562 was > 100 µg/mL; in the series on EOL1, 36.3 µg/mL (≈ 82.4 µM); in the series on HL-60, 53.4 µg/mL (≈ 121 µM); in the series with PBMC, > 100 µg/mL; in the series with KG-1a, > 100 µg/mL. For the same molecule, the inhibition entry in the series on RAW264.7 [3] and in the series on RAW264.7 [8] was “Active” in each case. Moreover, the viability at 48 h, 2.7 ug/ml in [4] was found to be 80%. In [5], the inhibition stood at 8.6%. Besides, in [6], the IC20 at 48 h came out at 2.7 µg/mL (≈ 6.13 µM). For the same molecule, the values for the Activity in series [7] and in [9] were 0.1 µM and 0.2 µM, respectively.

As for `C/C(=C\CO)CCC[C@H](C)CCC[C@H](C)CCCC(C)C` [TRANS-PHYTOL], the IC50 in the series with K562 came out at 45.8 µg/mL (≈ 154 µM).

In the case of `CC[C@]1(O)C[C@H]2CN(CCc3c([nH]c4ccccc34)[C@@](C(=O)OC)(c3cc4c(cc3OC)N(C=O)[C@H]3[C@@](O)(C(=O)OC)[C@H](OC(C)=O)[C@]5(CC)C=CCN6CC[C@]43[C@@H]65)C2)C1` [VINCRISTINE], the IC50 in the series with HL-60 was 0.008 µg/mL (≈ 0.0097 µM).

Consider `C=C(C)[C@@H]1CC[C@]2(C)CC[C@]3(C)[C@H](CC[C@@H]4[C@@]5(C)CC[C@H](O)C(C)(C)[C@@H]5CC[C@]43C)[C@@H]12` [LUPEOL], for which the IC50 with K562 was found to be 82.8 µg/mL (≈ 194 µM).

`O=C1O[C@H]([C@@H](O)CO)C(O)=C1O`: the values for the Activity in series [7] and in [9] were 1.7 µM and 23.7 µM, respectively.
